Results from patent publication US10952415B2, “Prostate cancer cell lines, gene signatures and uses thereof” (priority 2011, dated 2021).

B1: CCR5: printed CCR5, probably CCL5 (R&D System), the CCR5 ligand used as chemoattractant (protein, UniProt P13501 24-91, looked up)
C-C motif chemokine 5: SPYSSDTTPCCFAYIARPLPRAHIKEYFYTSGKCSNPAVVFVTRKNRQVCANPEKKWVREYINSLEMS

What was measured:
[1] = system: PEC lines; experiment: Experimental metastasis assay: intracardiac injection of Luc2-Tomato-Red PEC lines, bioluminescence, X-ray and F-18-NaF imaging; format: in vivo, FVB mice
[2] = system: PEC-Src line; experiment: Three-dimensional (Matrigel) invasion assay; format: cell-based, murine; conditions: 10 ug/ml osteopontin or 15 ng/ml CCL5 as chemoattractant in upper chamber, three days
Experimental: The three-dimensional invasion assay was performed as previously reported. […] The transwell was incubated at 37° C. overnight to allow the collagen to solidify. 30,000 cells were then seeded on the bottom of the transwell membrane and allowed to attach. Serum-free growth medium was placed into the bottom chamber, while 10 ug/ml osteopontin (R&D System), or 15 ng/ml CCL5 (R&D System), or 10% FBS was used as a chemo attractant in the medium of the upper chamber. The cells were then chemo attracted across the filter through the collagen above for three days. Cells were fixed in 4% formaldehyde, permeabilized with 0.2% Triton-X in PBS and then stained with […] propidium iodide (PI) for 2 h. Fluorescence was analyzed by confocal z sections (one section every […]) at 10× magnification from the bottom of the filter using a Zeiss LSM 510 Meta inverted confocal microscope at the Kimmel Cancer Center Bioimaging Facilit.
For the comparison to tissue, the in vivo tumor gene expression in the oncogene transformed PEC was compared with the expression in vivo in the dorsolateral ventral prostate of mice with the same strain. […] Upregulation of the receptor ligands CCL2, CCL7, and CCL8 was observed (2- to 3-fold). CCL7, CCL8 and CCL5 are ligands for CCR5, CCL8 and CCL5 for CCR1 (FIG. 16H). […]

[3] = Maraviroc 8 mg/kg oral vs control, FVB mice, 2 weeks after intracardiac injection of PEC lines, N=8 per group

| Molecule | reduction of bony metastasis (lower limb bony mass) [1, 3] | reduction of total body metastatic burden (photon flux) [1, 3] | effect on metastasis (result in words) ([1]; daily oral CCR5 antagonist, bony / spinal osteolytic metastasis in mice) | reduction of spine metastasis ([1]; daily oral treatment, F-18-NaF imaging correlated with X-ray, FVB mice) | Matrigel invasion of the PEC-Src line (result in words) [2] |
| --- | --- | --- | --- | --- | --- |
| Maraviroc | > 50% | > 50% | reduction in metastasis | > 90% |  |
| osteopontin [OPN] |  |  |  |  | enhanced PEC invasiveness into matrigel |
| B1 |  |  |  |  | enhanced PEC invasiveness into matrigel |
